Laboratory results from BindingDB's records for doi:10.1016/j.bmcl.2004.02.106 (Merck Research Laboratories, 2004).
Several values for one entry are separate records, joined by “and”; a condition that tells them apart may be missing. Equal entries are not always repeated.

These molecules were tested against Sphingosine 1-phosphate receptor 5 (Homo sapiens) (UniProt Q9H228) (assay: Inhibition of [33P]-S1P binding to human Sphingosine 1-phosphate receptor 5 expressed on CHO cell membranes).
Sequence of Sphingosine 1-phosphate receptor 5 (Homo sapiens) (Q9H228 whole entry, looked up): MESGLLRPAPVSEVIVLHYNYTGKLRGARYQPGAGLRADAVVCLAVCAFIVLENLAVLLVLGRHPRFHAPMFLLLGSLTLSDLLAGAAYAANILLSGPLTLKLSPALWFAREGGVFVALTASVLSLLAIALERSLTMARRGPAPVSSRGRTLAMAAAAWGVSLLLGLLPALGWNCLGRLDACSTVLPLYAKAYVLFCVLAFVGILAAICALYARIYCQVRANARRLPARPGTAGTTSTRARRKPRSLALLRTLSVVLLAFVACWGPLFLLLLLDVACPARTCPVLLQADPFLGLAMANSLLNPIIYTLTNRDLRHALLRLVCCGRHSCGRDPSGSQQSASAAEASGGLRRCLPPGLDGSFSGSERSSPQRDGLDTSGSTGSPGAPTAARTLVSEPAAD
In the case of `CCCCCCCCc1ccc(CC[C@@H](N)CC(=O)[PH](O)(O)O)cc1`, the IC50 is reported as 4.5 nM and 33 nM. With `CCCCCCCCc1ccc(CCC(N)C(=O)C[PH](O)(O)O)cc1` (centres undefined) the IC50 was 240 nM and 76 nM. In the case of `CCCCCCCCc1ccc(CC[C@H](N)CC(=O)[PH](O)(O)O)cc1`, the IC50 is reported as 27 nM and 73 nM. With `CCCCCCCCc1ccc(CCC(N)CCC(=O)O)cc1` (centres undefined) [4-Amino-6-(4-octyl-phenyl)-hexanoic acid] the IC50 was 1000 nM.
